How the values were obtained:
[1] = target: T1, human Oxytocin Receptor (hOTR) (Homo sapiens, UniProt P30559); assay: Oxytocin receptor (OTR) antagonist assay (FLIPR calcium, CHEM-1-hOTR cells); format: cell-based
T1 construct: host or cells: CHEM-1 (ready-to-assay frozen cells)
T1 sequence (P30559 1-389): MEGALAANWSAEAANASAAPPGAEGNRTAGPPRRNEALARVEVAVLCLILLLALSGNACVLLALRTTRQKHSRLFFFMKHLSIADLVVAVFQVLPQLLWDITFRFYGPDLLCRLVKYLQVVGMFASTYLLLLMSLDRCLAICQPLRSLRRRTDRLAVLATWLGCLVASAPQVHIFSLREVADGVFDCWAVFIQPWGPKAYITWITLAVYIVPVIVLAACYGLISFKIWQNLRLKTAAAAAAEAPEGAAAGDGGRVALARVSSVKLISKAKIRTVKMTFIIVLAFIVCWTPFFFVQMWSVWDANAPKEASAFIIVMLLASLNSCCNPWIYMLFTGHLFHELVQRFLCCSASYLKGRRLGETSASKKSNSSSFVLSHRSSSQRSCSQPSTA
Procedure: This assay was performed in CHEM-1 cells expressing the human Oxytocin Receptor (hOTR) to determine the inhibitory effect of the compounds of the invention on the human Oxytocin receptor. Oxytocin evokes an increase in intracellular calcium in CHEM-1-hOTR cells which is measured in a fluorescence assay on the FLIPR^TETRA using calcium sensitive dyes. Test compounds were assessed for their ability to affect the magnitude of the response to oxytocin, with antagonists showing a concentration-dependent reduction in the oxytocin-mediated fluorescence.
CHEM-1-hOTR ready was used to assay frozen cells (Eurofins #HTS09ORTA) which are supplied with a proprietary Media Component.
Day 1 of the assay: Cells were thawed in a 37° C. water bath and diluted with the supplied Media Component to a final volume of 10 ml. The cell suspension was centrifuged at 1000 rpm for 3 min at room temperature and the supernatant was discarded. The cell pellet was resuspended in Media Component (10.5 ml) and the cells (25 μL) were dispensed into a poly-D-lysine coated black, clear bottomed, 384-well plate. The plates were incubated overnight at 37° C., 5% CO2.
Day 2: At the start of each assay day the potency of oxytocin was assessed and an EC80 concentration was determined for subsequent compound profiling. Assays were performed using a two-step addition protocol on the FLIPR^TETRA; first addition of 5 μl of control or test compound at 10× final in assay buffer with 15 min incubation at 37° C., 5% CO2 followed by 10 μl of oxytocin at 6× final concentration in assay buffer. Changes in fluorescence were monitored for 3 min after both additions on the FLIPR^TETRA using 470-495 nm excitation and 515-575 nm emission wavelengths. The assay buffer consisted of HBSS (+Ca/+Mg) supplemented with 20 mM HEPES, and for the preparation of the oxytocin agonist only, 0.1% w/v bovine serum albumin. The assay was initiated by the removal of growth media from the cells and replaced with 45 μl of Calcium-6 dye (Molecular Devices) prepared at 1× in assay buffer. Cells were loaded with dye for 60-90 min at 37° C., 5% CO2 before initiation of the FLIPR^TETRA protocol. […] For compound profiling, test compounds were first serially diluted in DMSO (10-point curve, 1:3 dilutions) then diluted 33.3-fold in assay buffer prior to addition to the dye loaded cells on the FLIPR^TETRA. At the end of the incubation period 10 μl of oxytocin in assay buffer containing 0.1% BSA was added at the previously determined EC80 concentration.
In-plate controls for the assay included a L-368,899 concentration-response curve as the reference OTR antagonist and an oxytocin concentration-response curve to confirm the reproducibility of the EC80 used for the compound challenge.

[2] = Wild-type MDCK permeability and efflux assay (Papp, efflux ratio); format: in vitro ADME; conditions: dog, pH 7.4, wild-type MDCK cells; for efflux ratio at 1 h, 10 μM: Papp B>A/Papp A>B, read-out: ER WT (Efflux Ratio)
Method in brief: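 Confluent WT or MDR1-MDCK monolayers (3-day culture) dosed with 10 μM compound, 0.1% DMSO, in HBSS/25 mM HEPES pH 7.4, A>B and B>A, 1 h at 37 °C; LC-MS/MS quantitation. Papp from acceptor/donor ratio; efflux ratio = Papp B>A/A>B; EER = ER(MDR1)/ER(WT).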

## COc1ccnc(N2CC3(CN(C(=O)N4c5ccc(Cl)cc5OCC4C)C3)C2)c1 (stereo not drawn) [20-8]
[1]
  IC50: 100 to 500 nM
[2]
  Papp A→B at 1 h, 10 μM: > 20 ×10⁻⁶ cm/s
  efflux ratio at 1 h, 10 μM: < 1

## O=C(N1CC2(C1)CN(c1ccc(F)cn1)C2)N1CCOCc2cc(Cl)ccc21 [8-4]
[1]
  IC50: ≥ 1000 nM
[2]
  Papp A→B at 1 h, 10 μM: > 20 ×10⁻⁶ cm/s
  efflux ratio at 1 h, 10 μM: 1 to 2

## Cc1ccnc(N2CC3(CN(C(=O)N4c5ccc(Cl)cc5OCC4C)C3)C2)n1 (single isomer, unassigned) [20-12-B]
[1]
  IC50: < 100 nM
[2]
  Papp A→B at 1 h, 10 μM: > 20 ×10⁻⁶ cm/s
  efflux ratio at 1 h, 10 μM: < 1

## CC1COc2cc(Cl)c(F)cc2N1C(=O)N1CC2(C1)CN(c1ncccn1)C2 (single isomer, unassigned) [19-2-B]
[1]
  IC50: 500 to 1000 nM
[2]
  Papp A→B at 1 h, 10 μM: > 20 ×10⁻⁶ cm/s
  efflux ratio at 1 h, 10 μM: 1 to 2

## Cc1ccnc(N2CC3(CN(C(=O)N4c5ccc(F)cc5OCC4C)C3)C2)c1 (single isomer, unassigned) [20-4-B]
[1]
  IC50: 500 to 1000 nM
[2]
  Papp A→B at 1 h, 10 μM: > 20 ×10⁻⁶ cm/s
  efflux ratio at 1 h, 10 μM: < 1

## COc1ccnc(N2CC3(CN(C(=O)N4c5ccc(Cl)cc5OCC4C)C3)C2)c1 (single isomer, unassigned) [20-8-B]
[1]
  IC50: 100 to 500 nM
[2]
  Papp A→B at 1 h, 10 μM: > 20 ×10⁻⁶ cm/s
  efflux ratio at 1 h, 10 μM: < 1

## CC1COc2cc(Cl)ccc2N1C(=O)N1CC2(C1)CN(c1noc3cccnc13)C2 (single isomer, unassigned) [18-3-B]
[1]
  IC50: ≥ 1000 nM
[2]
  Papp A→B at 1 h, 10 μM: > 20 ×10⁻⁶ cm/s
  efflux ratio at 1 h, 10 μM: < 1

## COc1ccnc(N2CC3(CN(C(=O)N4c5ccc(Cl)cc5OCC4C)C3)C2)n1 (stereo not drawn) [20-9]
[1]
  IC50: 100 to 500 nM
[2]
  Papp A→B at 1 h, 10 μM: > 20 ×10⁻⁶ cm/s
  efflux ratio at 1 h, 10 μM: < 1

## O=C(N1CC2(C1)CN(c1ccccn1)C2)N1CCC(O)c2cc(Cl)ccc21 (single isomer, unassigned) [13-2-B]
[1]
  IC50: 500 to 1000 nM
[2]
  Papp A→B at 1 h, 10 μM: > 20 ×10⁻⁶ cm/s
  efflux ratio at 1 h, 10 μM: 1 to 2

## COc1ccnc(N2CC3(CN(C(=O)N4c5ccc(Cl)cc5OCC4C)C3)C2)n1 (single isomer, unassigned) [20-9-B]
[1]
  IC50: 500 to 1000 nM
[2]
  Papp A→B at 1 h, 10 μM: > 20 ×10⁻⁶ cm/s
  efflux ratio at 1 h, 10 μM: < 1

## Cc1ccnc(N2CC3(CN(C(=O)N4c5ccc(Cl)cc5OCC4C)C3)C2)c1 (stereo not drawn) [20-11]
[1]
  IC50: 100 to 500 nM
[2]
  Papp A→B at 1 h, 10 μM: > 20 ×10⁻⁶ cm/s
  efflux ratio at 1 h, 10 μM: < 1

## CC1COc2cc(F)ccc2N1C(=O)N1CC2(C1)CN(c1cc(C#N)ccn1)C2 (single isomer, unassigned) [20-3-B]
[1]
  IC50: 100 to 500 nM
[2]
  Papp A→B at 1 h, 10 μM: > 20 ×10⁻⁶ cm/s
  efflux ratio at 1 h, 10 μM: < 1

## O=C(N1CC2(C1)CN(c1ccc(F)cn1)C2)N1CCOc2cc(Cl)ccc21 [9-7]
[1]
  IC50: ≥ 1000 nM
[2]
  Papp A→B at 1 h, 10 μM: > 20 ×10⁻⁶ cm/s
  efflux ratio at 1 h, 10 μM: < 1

## CC1COc2cc(Cl)c(F)cc2N1C(=O)N1CC2(C1)CN(c1cccnn1)C2 (single isomer, unassigned) [19-4-A]
[1]
  IC50: 100 to 500 nM
[2]
  Papp A→B at 1 h, 10 μM: > 20 ×10⁻⁶ cm/s
  efflux ratio at 1 h, 10 μM: 1 to 2

## Cc1nccnc1N1CC2(CN(C(=O)N3c4ccc(Cl)cc4OCC3C)C2)C1 (single isomer, unassigned) [20-10-A]
[1]
  IC50: 100 to 500 nM
[2]
  Papp A→B at 1 h, 10 μM: > 20 ×10⁻⁶ cm/s
  efflux ratio at 1 h, 10 μM: < 1

## CC1COc2cc(F)c(F)cc2N1C(=O)N1CC2(C1)CN(c1ccc(F)cn1)C2 (stereo not drawn) [19-5]
[1]
  IC50: 100 to 500 nM
[2]
  Papp A→B at 1 h, 10 μM: > 20 ×10⁻⁶ cm/s
  efflux ratio at 1 h, 10 μM: < 1

## CC1COc2cc(F)c(F)cc2N1C(=O)N1CC2(C1)CN(c1ncccn1)C2 (single isomer, unassigned) [19-1-B]
[1]
  IC50: ≥ 1000 nM
[2]
  Papp A→B at 1 h, 10 μM: > 20 ×10⁻⁶ cm/s
  efflux ratio at 1 h, 10 μM: 1 to 2

## CC1COc2cc(Cl)c(F)cc2N1C(=O)N1CC2(C1)CN(c1cccnn1)C2 (stereo not drawn) [19-4]
[1]
  IC50: 100 to 500 nM
[2]
  Papp A→B at 1 h, 10 μM: > 20 ×10⁻⁶ cm/s
  efflux ratio at 1 h, 10 μM: < 1

## O=C(N1CC2(C1)CN(c1ccc(F)cn1)C2)N1CCC(O)c2cc(Cl)ccc21 (single isomer, unassigned) [13-1-A]
[1]
  IC50: ≥ 1000 nM
[2]
  Papp A→B at 1 h, 10 μM: > 20 ×10⁻⁶ cm/s
  efflux ratio at 1 h, 10 μM: < 1

## CC1COc2cc(Cl)ccc2N1C(=O)N1CC2(C1)CN(c1noc3cccnc13)C2 (stereo not drawn) [18-3]
[1]
  IC50: ≥ 1000 nM
[2]
  Papp A→B at 1 h, 10 μM: > 20 ×10⁻⁶ cm/s
  efflux ratio at 1 h, 10 μM: < 1

## O=C(N1CC2(C1)CN(c1ccc(F)cn1)C2)N1CCC(O)c2cc(Cl)ccc21 (stereo not drawn) [13-1, (6-chloro-4-hydroxy-3,4-dihydroquinolin-1(2H)-yl)(6-(5-fluoropyridin-2-yl)-2,6-diazaspiro[3.3]heptan-2-yl)methanone]
[1]
  IC50: ≥ 1000 nM
[2]
  Papp A→B at 1 h, 10 μM: > 20 ×10⁻⁶ cm/s
  efflux ratio at 1 h, 10 μM: < 1

## CC1COc2cc(Cl)ccc2N1C(=O)N1CC2(C1)CN(c1ncccn1)C2 (single isomer, unassigned) [1-83-B, (7-chloro-3-methyl-2,3-dihydro-4H-benzo[b][1,4]oxazin-4-yl)(6-(pyrimidin-2-yl)-2,6-diazaspiro[3.3]heptan-2-yl)methanone]
[1]
  IC50: 100 to 500 nM
[2]
  Papp A→B at 1 h, 10 μM: > 20 ×10⁻⁶ cm/s
  efflux ratio at 1 h, 10 μM: < 1

## CC1COc2cc(F)ccc2N1C(=O)N1CC2(C1)CN(c1noc3ccccc13)C2 (single isomer, unassigned) [4-3-B]
[1]
  IC50: ≥ 1000 nM
[2]
  Papp A→B at 1 h, 10 μM: > 20 ×10⁻⁶ cm/s
  efflux ratio at 1 h, 10 μM: < 1

## CC1COc2cc(Cl)ccc2N1C(=O)N1CC2(C1)CN(c1cccnn1)C2 (single isomer, unassigned) [9-1-B]
[1]
  IC50: 100 to 500 nM
[2]
  Papp A→B at 1 h, 10 μM: > 20 ×10⁻⁶ cm/s
  efflux ratio at 1 h, 10 μM: 1 to 2

## Cc1nccnc1N1CC2(CN(C(=O)N3c4ccc(Cl)cc4OCC3C)C2)C1 (stereo not drawn) [20-10]
[1]
  IC50: 100 to 500 nM
[2]
  Papp A→B at 1 h, 10 μM: > 20 ×10⁻⁶ cm/s
  efflux ratio at 1 h, 10 μM: < 1

## O=C(N1CC2(C1)CN(c1ccccn1)C2)N1CCOCc2cc(Cl)ccc21 [8-12]
[1]
  IC50: 500 to 1000 nM
[2]
  Papp A→B at 1 h, 10 μM: > 20 ×10⁻⁶ cm/s
  efflux ratio at 1 h, 10 μM: < 1
